According to patent publication US6642392B1 (priority 1997, dated 2003):
Read-outs that look alike come from different tables or passages of the source.

Assays:
Assay type in all cases: in vivo
Pyricularia oryzae = conditions: for Test C disease control rating: rice blast; for Test C disease control rating (100 = 100% disease control, 0 = no disease control): rice seedlings sprayed to run-off, inoculated the following day, rating relative to controls, unmarked compounds (standard test rate)
Botrytis cinerea = experiment: Test E: gray mold, preventive spray on cucumber seedlings; conditions: for Test E disease control rating: gray mold on cucumber; for Test E disease control rating (100 = 100% disease control, 0 = no disease control): cucumber seedlings sprayed to run-off, inoculated the following day, rating relative to controls, unmarked compounds (standard test rate)
Method in brief: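 Preventive spray on cucumber seedlings used a suspension (3% acetone, 250 ppm Trem 014), applied to run-off one day before inoculation with Botrytis cinerea spores. Plants were held 48 h at 20° C in saturated air, then 5 days at 20° C. Percent disease control was scored relative to untreated plants.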

Phytophthora infestans = conditions: for Test D disease control rating: tomato late blight; for Test D disease control rating (100 = 100% disease control, 0 = no disease control): tomato seedlings sprayed to run-off, inoculated the following day, rating relative to controls, unmarked compounds (standard test rate)
Puccinia recondita = experiment: Test B: wheat leaf rust, preventive spray on wheat seedlings; conditions: for Test B disease control rating: wheat leaf rust; for Test B disease control rating (100 = 100% disease control, 0 = no disease control): wheat seedlings sprayed to run-off, inoculated the following day, rating relative to controls, unmarked compounds (standard test rate)
Method in brief: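 Preventive test: P. recondita spores were applied one day after a run-off spray of compound suspension on wheat seedlings. Plants had 24 h at 20 °C in saturated air plus 6 days in a 20 °C growth chamber. Scoring is % disease control (100 = full) relative to controls.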

[1] = tested on: Eiysiphe graminis f. sp. tritici; experiment: Test A: wheat powdery mildew, preventive spray on wheat seedlings; conditions: for Test A disease control rating: wheat powdery mildew; for Test A disease control rating (100 = 100% disease control, 0 = no disease control): wheat seedlings sprayed to run-off, inoculated the following day, rating relative to controls, unmarked compounds (standard test rate)
Method in brief: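 Preventive test: seedlings inoculated with powdery mildew spores one day after run-off spraying of a suspension. Ratings after 7 days in a 20° C growth chamber express percent disease control versus controls.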

[2] = 100 = 100% disease control, 0 = no control, unmarked entries (standard test concentration)
[3] = 100 = 100% disease control, 0 = no control relative to controls, unmarked entries (standard test concentration)

Compound	Test C disease control rating (Pyricularia oryzae; [2]) [%]	Test E disease control rating (Botrytis cinerea; [2]) [%]	Test D disease control rating (Phytophthora infestans; [2]) [%]	Test B disease control rating (Puccinia recondita; [2]) [%]	Test A disease control rating [1, 3] [%]	also measured
C[C@H](COc1cccc(I)c1)NC(=O)C(C#N)C(C)(C)C (single isomer, unassigned) [12b]	94	0	68	0	77	–
CC(COc1cccc(Br)c1)NC(=O)C(C#N)C(C)(C)C (mixture of isomers) [9a]	53	0	0	0	0	–
C=CC(C)(C)C(C#N)C(=O)N[C@H](C)COc1cc(Cl)ccc1Cl (single isomer, unassigned) [215b]	–	–	–	–	–	Test C disease control rating (100 = 100% disease control, 0 = no disease control) (Pyricularia oryzae): 99%; Test E disease control rating (100 = 100% disease control, 0 = no disease control) (Botrytis cinerea): 83%; Test D disease control rating (100 = 100% disease control, 0 = no disease control) (Phytophthora infestans): 76%; Test B disease control rating (100 = 100% disease control, 0 = no disease control) (Puccinia recondita): 28%; Test A disease control rating (100 = 100% disease control, 0 = no disease control) [1]: 0%
CCC(C#N)C(=O)N[C@H](C)[C@H](Oc1cc(F)ccc1F)c1ccccc1 (some centres unmarked) [compound 293]	–	–	–	–	–	Test C disease control rating (100 = 100% disease control, 0 = no disease control) (Pyricularia oryzae): 100%; Test E disease control rating (100 = 100% disease control, 0 = no disease control) (Botrytis cinerea): 0%; Test D disease control rating (100 = 100% disease control, 0 = no disease control) (Phytophthora infestans): 23%; Test B disease control rating (100 = 100% disease control, 0 = no disease control) (Puccinia recondita): 0%; Test A disease control rating (100 = 100% disease control, 0 = no disease control) [1]: 0%
CC(COc1cc(F)ccc1Cl)NC(=O)C(C#N)C(C)(C)C=CF (mixture of isomers) [compound 222]	–	–	–	–	–	Test C disease control rating (100 = 100% disease control, 0 = no disease control) (Pyricularia oryzae): 100%; Test E disease control rating (100 = 100% disease control, 0 = no disease control) (Botrytis cinerea): 0%; Test D disease control rating (100 = 100% disease control, 0 = no disease control) (Phytophthora infestans): 41%; Test B disease control rating (100 = 100% disease control, 0 = no disease control) (Puccinia recondita): 28%; Test A disease control rating (100 = 100% disease control, 0 = no disease control) [1]: 62%
C[C@H](COc1c(Cl)ccc(Cl)c1Cl)NC(=O)C(C#N)C(C)(C)C (single isomer, unassigned) [171b]	53	58	0	0	91	–
CC(COc1ccc(Cl)cc1)NC(=O)C(C#N)C(C)(C)C (single isomer, unassigned) [7a]	91	0	89	85	77	–
C[C@H](COc1cccc(C(F)(F)F)c1)NC(=O)C(C#N)C(C)(C)C (single isomer, unassigned) [18a]	91	0	0	0	0	–
CC(COc1cccc(F)c1C#N)NC(=O)C(C#N)C(C)(C)C (mixture of isomers) [compound 39]	86	0	2	0	0	–
CCC1(C(=O)NC(C)COc2cc(F)ccc2F)C(C)C1(Cl)Cl (centres unmarked) [compound 107]	–	–	–	–	–	Test C disease control rating (Pyricularia oryzae; tested at 40 ppm): 100%; Test E disease control rating (Botrytis cinerea; tested at 40 ppm): 0%; Test D disease control rating (Phytophthora infestans; tested at 40 ppm): 0%; Test B disease control rating (Puccinia recondita; tested at 40 ppm): 0%; Test A disease control rating ([1]; tested at 40 ppm): 71%
C=CCc1ccccc1OCC(C)NC(=O)C(C#N)C(C)(C)C (mixture of isomers) [25b]	97	0	24	0	63	–
CCC1(C(=O)NC(C)COc2cc(F)ccc2Br)C(C)C1(Cl)Cl (centres unmarked) [compound 125]	–	–	–	–	–	Test C disease control rating (Pyricularia oryzae; tested at 40 ppm): 99%; Test E disease control rating (Botrytis cinerea; tested at 40 ppm): 0%; Test D disease control rating (Phytophthora infestans; tested at 40 ppm): 0%; Test B disease control rating (Puccinia recondita; tested at 40 ppm): 0%; Test A disease control rating ([1]; tested at 40 ppm): 90%
CC(COc1ccc(Br)cc1)NC(=O)C(C#N)C(C)(C)C (single isomer, unassigned) [10a]	86	0	23	27	0	–
C[C@H](COc1ccc(Cl)cc1Cl)NC(=O)C(C#N)C(C)(C)C (single isomer, unassigned) [32b]	94	0	23	27	0	–
CCC1(C(=O)NCC=Cc2ccccc2CC#N)C(C)C1(Cl)Cl (centres unmarked) [compound 161]	–	–	–	–	–	Test C disease control rating (Pyricularia oryzae; tested at 40 ppm): 0%; Test E disease control rating (Botrytis cinerea; tested at 40 ppm): 0%; Test D disease control rating (Phytophthora infestans; tested at 40 ppm): 0%; Test B disease control rating (Puccinia recondita; tested at 40 ppm): 0%; Test A disease control rating ([1]; tested at 40 ppm): 0%
CCC1(C(=O)NC(C)COn2c(C#N)cc(Br)c2C)C(C)C1(Cl)Cl (mixture of isomers) [compound 141]	74	0	84	68	38	–
C[C@H](COc1cc(F)ccc1F)NC(=O)C(C#N)C(C)(C)C=CF (single isomer, unassigned) [221b]	–	–	–	–	–	Test C disease control rating (100 = 100% disease control, 0 = no disease control) (Pyricularia oryzae): 100%; Test E disease control rating (100 = 100% disease control, 0 = no disease control) (Botrytis cinerea): 0%; Test D disease control rating (100 = 100% disease control, 0 = no disease control) (Phytophthora infestans): 41%; Test B disease control rating (100 = 100% disease control, 0 = no disease control) (Puccinia recondita): 68%; Test A disease control rating (100 = 100% disease control, 0 = no disease control) [1]: 62%
CC(COc1ccccc1C(F)(F)F)NC(=O)C(C#N)C(C)(C)C (mixture of isomers) [17a]	30	0	16	67	85	–
C=CCc1cccc(C#N)c1OCC(C)NC(=O)C(C#N)C(C)(C)C (mixture of isomers) [compound 204]	74	0	0	0	0	–
CC(COc1ccc(F)cc1C#N)NC(=O)C(C#N)C(C)(C)C (mixture of isomers) [compound 40]	86	0	0	0	21	–
CCc1ccccc1OCC(C)NC(=O)C(C#N)C(C)(C)C (mixture of isomers) [20b]	100	0	0	0	0	–
CCC1(C(=O)NCC=Cc2cccc(Cl)c2)C(C)C1(Cl)Cl (centres unmarked) [compound 159]	0	47	0	0	0	–
CCC1(C(=O)NC(C)COc2ccccc2C(F)(F)F)C(C)C1(Cl)Cl (mixture of isomers) [94b]	–	–	–	–	–	Test C disease control rating (Pyricularia oryzae; tested at 40 ppm): 0%; Test E disease control rating (Botrytis cinerea; tested at 40 ppm): 0%; Test D disease control rating (Phytophthora infestans; tested at 40 ppm): 0%; Test B disease control rating (Puccinia recondita; tested at 40 ppm): 0%; Test A disease control rating ([1]; tested at 40 ppm): 71%
CC(COc1cc(I)ccc1C#N)NC(=O)C(C#N)C(C)(C)C (mixture of isomers) [compound 46]	53	0	66	0	0	–
C[C@H](COc1cccc(C(F)(F)F)c1)NC(=O)C(C#N)C(C)(C)C (single isomer, unassigned) [18b]	94	0	0	0	77	–
CC(COc1ccccc1CF)NC(=O)C(C#N)C(C)(C)C (mixture of isomers) [compound 175]	–	–	–	–	–	Test C disease control rating (Pyricularia oryzae; tested at 40 ppm): 74%; Test E disease control rating (Botrytis cinerea; tested at 40 ppm): 0%; Test D disease control rating (Phytophthora infestans; tested at 40 ppm): 33%; Test B disease control rating (Puccinia recondita; tested at 40 ppm): 0%; Test A disease control rating ([1]; tested at 40 ppm): 0%
CC(COc1c(F)cccc1C#N)NC(=O)C(C#N)C(C)(C)C (mixture of isomers) [compound 203]	91	0	0	28	0	–
CC(COc1ccccc1Cl)NC(=O)C(C#N)C(C)(C)C (mixture of isomers) [5b]	100	0	24	86	0	–
